Consider 2 compounds from publication PMC6479789, “High Consistency of Structure-Based Design and X-Ray Crystallography: Design, Synthesis, Kinetic Evaluation and Crystallographic Binding Mode Determination of Biphenyl-N-acyl-β-D-Glucopyranosylamines as Glycogen Phosphorylase Inhibitors” (Molecules, 2019).

Common to all, as to type: biochemical
The target in one experiment is T1, hlGPa (Homo sapiens, UniProt P06737).
T1 construct: gene PYGL; recombinant human liver GPb (produced as described previously) converted to the phosphorylated a form with truncated gamma subunit of rabbit phosphorylase kinase
T1 sequence (P06737 2-847): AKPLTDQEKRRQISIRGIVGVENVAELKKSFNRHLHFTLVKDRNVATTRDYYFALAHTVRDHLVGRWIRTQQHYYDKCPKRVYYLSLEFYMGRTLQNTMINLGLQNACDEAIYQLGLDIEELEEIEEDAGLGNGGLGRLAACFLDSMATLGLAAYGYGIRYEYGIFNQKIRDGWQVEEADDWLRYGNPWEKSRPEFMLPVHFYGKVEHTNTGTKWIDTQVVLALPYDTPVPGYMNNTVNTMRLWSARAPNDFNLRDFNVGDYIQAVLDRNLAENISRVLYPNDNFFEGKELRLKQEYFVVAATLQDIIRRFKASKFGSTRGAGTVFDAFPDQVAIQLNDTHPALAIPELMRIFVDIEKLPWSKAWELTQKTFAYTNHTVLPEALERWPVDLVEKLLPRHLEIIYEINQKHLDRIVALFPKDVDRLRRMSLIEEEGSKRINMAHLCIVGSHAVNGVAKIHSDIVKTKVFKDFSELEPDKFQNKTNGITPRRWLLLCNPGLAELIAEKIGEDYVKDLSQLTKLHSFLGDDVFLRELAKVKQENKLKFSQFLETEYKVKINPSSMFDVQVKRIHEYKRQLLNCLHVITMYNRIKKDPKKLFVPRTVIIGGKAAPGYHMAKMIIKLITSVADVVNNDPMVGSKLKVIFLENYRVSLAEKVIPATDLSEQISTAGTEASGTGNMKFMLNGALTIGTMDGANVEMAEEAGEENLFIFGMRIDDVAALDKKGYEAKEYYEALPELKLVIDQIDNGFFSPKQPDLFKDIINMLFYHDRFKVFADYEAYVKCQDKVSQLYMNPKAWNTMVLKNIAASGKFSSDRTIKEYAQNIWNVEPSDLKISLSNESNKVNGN
The experiment in a line: inorganic phosphate release, glycogen synthesis direction. An excerpt:
inorganic phosphate release, glycogen synthesis direction on hlGPa

The target of the next experiment is T2, rmGPa (Oryctolagus cuniculus, UniProt P00489).
T2 construct: gene PYGM; native rabbit skeletal muscle GPb converted to the phosphorylated a form with truncated gamma subunit of rabbit phosphorylase kinase
T2 sequence (P00489 2-843): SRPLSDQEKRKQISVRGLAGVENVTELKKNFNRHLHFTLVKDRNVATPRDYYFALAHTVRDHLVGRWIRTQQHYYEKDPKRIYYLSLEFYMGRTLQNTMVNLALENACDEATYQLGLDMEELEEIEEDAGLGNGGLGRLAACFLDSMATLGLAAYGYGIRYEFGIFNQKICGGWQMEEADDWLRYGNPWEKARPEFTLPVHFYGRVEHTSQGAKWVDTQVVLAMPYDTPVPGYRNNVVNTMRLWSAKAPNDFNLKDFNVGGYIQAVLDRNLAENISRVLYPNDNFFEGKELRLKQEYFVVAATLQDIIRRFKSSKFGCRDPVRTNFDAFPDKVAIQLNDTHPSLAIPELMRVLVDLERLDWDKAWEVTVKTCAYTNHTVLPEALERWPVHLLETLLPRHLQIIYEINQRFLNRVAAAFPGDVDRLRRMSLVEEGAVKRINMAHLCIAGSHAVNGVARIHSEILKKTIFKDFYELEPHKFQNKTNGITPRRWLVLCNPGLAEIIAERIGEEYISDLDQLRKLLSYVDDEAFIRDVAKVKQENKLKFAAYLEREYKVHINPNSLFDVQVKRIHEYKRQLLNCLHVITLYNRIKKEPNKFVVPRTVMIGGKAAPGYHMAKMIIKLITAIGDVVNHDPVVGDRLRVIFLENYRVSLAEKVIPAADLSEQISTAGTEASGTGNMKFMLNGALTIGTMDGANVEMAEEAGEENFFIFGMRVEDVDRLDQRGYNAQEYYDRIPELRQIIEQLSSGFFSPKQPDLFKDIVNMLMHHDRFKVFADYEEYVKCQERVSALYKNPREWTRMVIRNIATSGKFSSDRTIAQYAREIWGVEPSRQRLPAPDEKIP
Described as above. An excerpt:
inorganic phosphate release, glycogen synthesis direction on rmGPa

The next experiment has as its target T3, rmGPb (Oryctolagus cuniculus, UniProt P00489).
T3 construct: gene PYGM; native, purified from rabbit skeletal muscles (Fischer and Krebs), unphosphorylated b form
T3 sequence (P00489 2-843): T2 sequence (P00489 2-843)
The experiment in a line: inorganic phosphate release, glycogen synthesis direction; crystal structure of the complex also solved. An excerpt:
inorganic phosphate release, glycogen synthesis direction; crystal structure of the complex also solved on rmGPb

SMILES strings stand for the structures.

On to `O=C(N[C@@H]1O[C@H](CO)[C@@H](O)[C@H](O)[C@H]1O)c1ccc(-c2ccccc2)cc1` [compound 4, N-(3,4,5-trihydroxy-6-(hydroxymethyl)tetrahydro-2H-pyran-2-yl)biphenyl-4-carboxamide], for which the inhibitory constant (Ki) was determined as 19.4 ± 0.2 µM on hlGPa, 12.8 ± 0.6 µM on rmGPa and 9.7 ± 0.7 µM on rmGPb.

For the compound `O=C(N[C@@H]1O[C@H](CO)[C@@H](O)[C@H](O)[C@H]1O)c1cccc(-c2ccc(F)cc2)c1` [compound 3, 4’-fluoro-N-(3,4,5-trihydroxy-6-(hydroxymethyl)tetrahydro-2H-pyran-2-yl)biphenyl-3-carboxamide], the inhibition constant Ki on hlGPa was 45.6 ± 1.8 µM; at rmGPa, 31.4 ± 2.2 µM; on rmGPb it was 56.1 ± 4.4 µM.
